From PubChem BioAssay AID330 (DTP/NCI, 2004)
Where “and” joins values, the source holds several entries; their conditions need not be identical. Identical values can stand only once. Toxic doses and inconclusive results are not listed.

Test system: P388 leukemia ip, CD2F1 mice, survival T/C
Assay: NCI In Vivo Anticancer Drug Screen. Data for tumor model P388 Leukemia (intraperitoneal) in CD2F1 (CDF1) mice
Conditions: endpoint: median survival time, higher = longer survival
In short: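 Mice carrying the transplanted tumor received test compound or vehicle. Survival was recorded in each group, and the value is the treated-group measurement divided by that of the vehicle-treated control group.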

[1] = dose: 50.0 mg/kg/injection, schedule: Q01DX005 (ip), vehicle: saline with Tween-80
[2] = dose: 100.0 mg/kg/injection, schedule: Q01DX005 (ip), vehicle: saline with Tween-80
[3] = dose: 200.0 mg/kg/injection, schedule: Q01DX005 (ip), vehicle: saline with Tween-80
[4] = dose: 50.0 mg/kg/injection, schedule: Q01DX009 (ip), vehicle: saline with Tween-80
[5] = dose: 100.0 mg/kg/injection, schedule: Q01DX009 (ip), vehicle: saline with Tween-80
[6] = dose: 200.0 mg/kg/injection, schedule: Q01DX009 (ip), vehicle: saline with Tween-80
[7] = dose: 100.0 mg/kg/injection, schedule: Q01DX001 (ip), vehicle: Klucel (hydroxypropylcellulose) (HPC)
[8] = dose: 200.0 mg/kg/injection, schedule: Q01DX001 (ip), vehicle: Klucel (hydroxypropylcellulose) (HPC)
[9] = dose: 400.0 mg/kg/injection, schedule: Q01DX001 (ip), vehicle: Klucel (hydroxypropylcellulose) (HPC)
[10] = dose: 100.0 mg/kg/injection, schedule: Q04DX003 (ip), vehicle: saline with Tween-80
[11] = dose: 50.0 mg/kg/injection, schedule: Q01DX005 (ip), vehicle: saline
[12] = dose: 100.0 mg/kg/injection, schedule: Q01DX005 (ip), vehicle: saline
[13] = dose: 50.0 mg/kg/injection, schedule: Q01DX005 (ip), vehicle: Klucel (hydroxypropylcellulose) (HPC)
[14] = dose: 100.0 mg/kg/injection, schedule: Q01DX005 (ip), vehicle: Klucel (hydroxypropylcellulose) (HPC)
[15] = dose: 200.0 mg/kg/injection, schedule: Q01DX005 (ip), vehicle: Klucel (hydroxypropylcellulose) (HPC)

O=C(Oc1c(Br)c(N(C(=O)c2ccccc2)c2ccccc2)c(OC(=O)c2ccccc2)c(Br)c1N(C(=O)c1ccccc1)c1ccccc1)c1ccccc1
T/C [1]: 91 % of control
T/C [2]: 95 % of control
T/C [3]: 89 % of control

CN1CC(=O)NC2C=CN(Cc3c(Cl)cccc3Cl)C=C2C1=O (stereo unspecified)
T/C (dose: 60.0 mg/kg/injection, schedule: Q01DX005 (ip), vehicle: saline with Tween-80): 89 % of control and 90 % of control
T/C (dose: 120.0 mg/kg/injection, schedule: Q01DX005 (ip), vehicle: saline with Tween-80): 88 % of control
T/C (dose: 240.0 mg/kg/injection, schedule: Q01DX005 (ip), vehicle: saline with Tween-80): 87 % of control and 90 % of control

O=C1c2ccccc2C2N1CCC1CCc3ccccc3N12 (stereo unspecified)
T/C [4]: 92 % of control
T/C [5]: 91 % of control
T/C [6]: 89 % of control

O=[N+]([O-])c1ccc(SC(=S)N2CCCCC2)c([N+](=O)[O-])c1
T/C (dose: 50.0 mg/kg/injection, schedule: Q01DX009 (ip), vehicle: Klucel (hydroxypropylcellulose) (HPC)): 105 % of control
T/C (dose: 100.0 mg/kg/injection, schedule: Q01DX009 (ip), vehicle: Klucel (hydroxypropylcellulose) (HPC)): 106 % of control
T/C (dose: 200.0 mg/kg/injection, schedule: Q01DX009 (ip), vehicle: Klucel (hydroxypropylcellulose) (HPC)): 111 % of control

Cc1cccc(-n2c(-c3ccccc3)cs/c2=N\N=C2/CSC(=O)N2Cc2ccccc2)c1
T/C [7]: 101 % of control
T/C [8]: 101 % of control
T/C [9]: 99 % of control

COc1cccc2c1C(=O)c1c(O)c3c(c(O)c1C2=O)C[C@@](O)(C(C)=O)C[C@@H]3OC1CC(N2CCCCC2)C(O)C(C)O1 (stereo partly specified)
T/C (dose: 1.56 mg/kg/injection, schedule: Q04DX003 (ip), vehicle: water): 111 % of control
T/C (dose: 6.25 mg/kg/injection, schedule: Q04DX003 (ip), vehicle: distilled water + Tween-80): 191 % of control
T/C (dose: 6.25 mg/kg/injection, schedule: Q04DX003 (ip), vehicle: water): 163 % of control
T/C (dose: 12.5 mg/kg/injection, schedule: Q04DX003 (ip), vehicle: distilled water + Tween-80): 106 % of control
T/C (dose: 12.5 mg/kg/injection, schedule: Q04DX003 (ip), vehicle: water): 111 % of control
T/C (dose: 25.0 mg/kg/injection, schedule: Q04DX003 (ip), vehicle: distilled water + Tween-80): 99 % of control

CC(=O)NCC(CN(C)C)(c1ccccc1)c1ccccc1
T/C (dose: 37.5 mg/kg/injection, schedule: Q01DX009 (ip), vehicle: Klucel (hydroxypropylcellulose) (HPC)): 101 % of control
T/C (dose: 75.0 mg/kg/injection, schedule: Q01DX009 (ip), vehicle: Klucel (hydroxypropylcellulose) (HPC)): 101 % of control
T/C (dose: 150.0 mg/kg/injection, schedule: Q01DX009 (ip), vehicle: Klucel (hydroxypropylcellulose) (HPC)): 96 % of control
T/C (dose: 300.0 mg/kg/injection, schedule: Q01DX009 (ip), vehicle: Klucel (hydroxypropylcellulose) (HPC)): 95 % of control

CN(Cc1cnc2nc(N)nc(N)c2n1)c1c(Cl)cc(C(=O)NC(CCC(=O)O)C(=O)O)cc1Br (stereo unspecified)
T/C (dose: 0.3 mg/kg/injection, schedule: Q01DX003 (ip), vehicle: saline): 183 % of control
T/C (dose: 0.4 mg/kg/injection, schedule: Q01DX003 (ip), vehicle: saline): 177 % of control
T/C [10]: 170 % of control
T/C (dose: 200.0 mg/kg/injection, schedule: Q04DX003 (ip), vehicle: saline with Tween-80): 170 % of control
T/C (dose: 400.0 mg/kg/injection, schedule: Q04DX003 (ip), vehicle: saline with Tween-80): 162 % of control and 195 % of control
T/C (dose: 600.0 mg/kg/injection, schedule: Q04DX003 (ip), vehicle: saline with Tween-80): 154 % of control

NC(=Nc1ccccc1)NNC=O
T/C [11]: 102 % of control
T/C [12]: 104 % of control
T/C (dose: 200.0 mg/kg/injection, schedule: Q01DX005 (ip), vehicle: saline): 100 % of control

CN(C)N1C(=O)c2c(Cl)c(Cl)c(Cl)c(Cl)c2C1=O
T/C [1]: 94 % of control
T/C [2]: 89 % of control

COc1ccc2c(c1)CCC1(C)C2=CC(=O)/C1=C\[O-].COc1ccc2c(c1)CCC1(C)C2=CC(=O)/C1=C\[O-].[Cu+2] (stereo unspecified)
T/C (dose: 25.0 mg/kg/injection, schedule: Q04DX003 (ip), vehicle: saline with Tween-80): 90 % of control
T/C (dose: 50.0 mg/kg/injection, schedule: Q04DX003 (ip), vehicle: saline with Tween-80): 90 % of control
T/C [10]: 86 % of control

O=C(O)c1nn(-c2ccccc2)c2c1CSc1ccccc1-2
T/C (dose: 100.0 mg/kg/injection, schedule: Q01DX001 (ip), vehicle: saline with Tween-80): 109 % of control
T/C (dose: 200.0 mg/kg/injection, schedule: Q01DX001 (ip), vehicle: saline with Tween-80): 104 % of control

CCCCCCCCCCCCOc1ccccc1
T/C [4]: 100 % of control
T/C [5]: 104 % of control
T/C [6]: 100 % of control

CCCNS(=O)(=O)c1ccccc1C(=O)NC1CCCCC1
T/C [13]: 103 % of control
T/C [14]: 93 % of control
T/C [15]: 94 % of control

CCC(=O)n1c(Cl)c(C=O)c2ccccc21
T/C [7]: 99 % of control
T/C [8]: 102 % of control
T/C [9]: 94 % of control

CCN(CC)Cc1cc(C)c(O)c(N=Nc2ccc([N+](=O)[O-])cc2)c1C
T/C (dose: 100.0 mg/kg/injection, schedule: Q04DX002 (ip), vehicle: saline with Tween-80): 101 % of control
T/C (dose: 200.0 mg/kg/injection, schedule: Q04DX002 (ip), vehicle: saline with Tween-80): 99 % of control
T/C (dose: 400.0 mg/kg/injection, schedule: Q04DX002 (ip), vehicle: saline with Tween-80): 97 % of control

CC(=O)c1c(-c2ccc(F)cc2)c(-c2ccc(F)cc2)n[nH]c1=O
T/C [1]: 100 % of control
T/C [2]: 100 % of control
T/C [3]: 97 % of control

C/C=C/C=C(/C=O)[C@@H](O)C(C)=O
T/C (dose: 2.0 mg/kg/injection, schedule: Q01DX009 (ip), vehicle: saline + alcohol): 121 % of control and 93 % of control
T/C (dose: 4.0 mg/kg/injection, schedule: Q01DX009 (ip), vehicle: saline + alcohol): 101 % of control
T/C (dose: 8.0 mg/kg/injection, schedule: Q01DX009 (ip), vehicle: saline + alcohol): 101 % of control
T/C (dose: 16.0 mg/kg/injection, schedule: Q01DX009 (ip), vehicle: saline + alcohol): 111 % of control

Cc1ccc2c(c1)N(CCSc1ncn[nH]1)C(C)(C)CC2C (stereo unspecified)
T/C (dose: 100.0 mg/kg/injection, schedule: Q04DX002 (ip), vehicle: Klucel (hydroxypropylcellulose) (HPC)): 97 % of control
T/C (dose: 200.0 mg/kg/injection, schedule: Q04DX002 (ip), vehicle: Klucel (hydroxypropylcellulose) (HPC)): 92 % of control
T/C (dose: 400.0 mg/kg/injection, schedule: Q04DX002 (ip), vehicle: Klucel (hydroxypropylcellulose) (HPC)): 97 % of control

COc1ccc(S(=O)(=O)N/N=C/c2cc(=O)[nH]c(=O)[nH]2)cc1
T/C (dose: 25.0 mg/kg/injection, schedule: Q01DX005 (ip), vehicle: saline with Tween-80): 100 % of control
T/C [1]: 101 % of control
T/C [2]: 105 % of control
T/C [3]: 118 % of control

CC1(C)NC(=O)N(CN2CCOCC2)C1=O
T/C (dose: 30.0 mg/kg/injection, schedule: Q01DX005 (ip), vehicle: saline): 104 % of control
T/C (dose: 60.0 mg/kg/injection, schedule: Q01DX005 (ip), vehicle: saline): 109 % of control and 111 % of control and 93 % of control
T/C (dose: 120.0 mg/kg/injection, schedule: Q01DX005 (ip), vehicle: saline): 106 % of control and 119 % of control and 123 % of control
T/C (dose: 240.0 mg/kg/injection, schedule: Q01DX005 (ip), vehicle: saline): 106 % of control and 116 % of control and 120 % of control

COC(=O)Nc1cnc(C(=O)O)c(C)c1-c1ccc(OC)c(OC)c1OCc1ccccc1
T/C (dose: 12.5 mg/kg/injection, schedule: Q01DX009 (ip), vehicle: other): 97 % of control
T/C (dose: 25.0 mg/kg/injection, schedule: Q01DX009 (ip), vehicle: other): 100 % of control
T/C (dose: 50.0 mg/kg/injection, schedule: Q01DX009 (ip), vehicle: other): 102 % of control
T/C (dose: 100.0 mg/kg/injection, schedule: Q01DX009 (ip), vehicle: other): 101 % of control
T/C (dose: 200.0 mg/kg/injection, schedule: Q01DX009 (ip), vehicle: other): 103 % of control

CCOC(=O)N1CCN(C(=O)c2nc3ccc(Cl)cc3[nH]2)CC1
T/C [13]: 108 % of control
T/C [14]: 87 % of control
T/C [15]: 93 % of control

CCN(CC)CCN1C(=O)c2cccc(N)c2C1=O
T/C [11]: 103 % of control
T/C [12]: 101 % of control
